# Reference: patent US12371454B2, “Cyclic peptide compound having Kras inhibitory action” (priority 2019, dated 2025)
# Starred links: 1 amine or outer side, 2 acyl side, 3 side chain; linkers in the order of their positions; H or OH if unused. Positions of bridges follow the written chain, without caps; N, C: chain ends. Non-standard residues stand in square brackets, D forms with d. Residues, ends and D or L forms follow the SMILES beside them. *: point of attachment. hPhe(3-Cl-4-CF3) = N[C@@H](CCc1ccc(C(F)(F)F)c(Cl)c1)C(=O)O; NMePhe(4-CF3) = CN[C@@H](Cc1ccc(C(F)(F)F)cc1)C(=O)O; hPhe(4-CF3) = N[C@@H](CCc1ccc(C(F)(F)F)cc1)C(=O)O; NMePhe(4-Cl) = CN[C@@H](Cc1ccc(Cl)cc1)C(=O)O; NMePhe(2-Cl) = CN[C@@H](Cc1ccccc1Cl)C(=O)O; NMedβ3hAla = C[C@H](CC(=O)[*:2])N(C)[*:1]; NMeAla(cPent) = CN[C@@H](CC1CCCC1)C(=O)O; X79 = CC(C)CCOC[C@H](CC(=O)[*:2])N[*:1]; NMeGly(cPent) = CN[C@H](C(=O)O)C1CCCC1; Pro(4,4-F2) = O=C(O)[C@@H]1CC(F)(F)CN1; NMeCha = CN[C@@H](CC1CCCCC1)C(=O)O; NMeChg = CN[C@H](C(=O)O)C1CCCCC1; NMeF = CN[C@@H](Cc1ccccc1)C(=O)O; NMeI = CC[C@H](C)[C@H](NC)C(=O)O; NMeD = CN[C@@H](CC(=O)O)C(=O)O; CH2CONHtBu = CC(C)(C)NC(=O)C*; NMeL = CN[C@@H](CC(C)C)C(=O)O; NMeV = CN[C@H](C(=O)O)C(C)C; d(β3hA) = C[C@@H](N)CC(=O)O; NMeS = CN[C@@H](CO)C(=O)O; NMeA = CN[C@@H](C)C(=O)O; Piperidide = C1CCN(*)CC1; Ac5c = NC1(C(=O)O)CCCC1; Aze = O=C(O)[C@@H]1CCN1; Aib = CC(C)(N)C(=O)O; βAla = NCCC(=O)O; Sar = CNCC(=O)O
# Target: T1, Kras and SOS1 (biotin-tagged human Kras loaded with GDP, His-tagged human SOS1) (Homo sapiens, UniProt P01116, G12D)
# T1 construct: made in house; host or cells: E. coli (stated for Kras only)
# Assay: Protein-protein interaction inhibition between Kras and SOS1 (KrasGl2D-SOS PPI) using AlphaScreen
# Format: binding
# Details: AlphaScreen; biotin-tagged human Kras loaded with GDP, His-tagged human SOS1; read-out: KRAS G12D-SOS PPI IC50
# Outline: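 Binding between SOS1 and Kras is detected as bead-proximity luminescence: illuminate Ni-conjugated donors (680 nm), collect 520-620 nm emission from streptavidin-conjugated acceptors; Kras carries biotin and GDP loaded after purification, SOS1 carries a His tag.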
# T1 sequence (P01116 1-188 isoform P01116-2 G12D): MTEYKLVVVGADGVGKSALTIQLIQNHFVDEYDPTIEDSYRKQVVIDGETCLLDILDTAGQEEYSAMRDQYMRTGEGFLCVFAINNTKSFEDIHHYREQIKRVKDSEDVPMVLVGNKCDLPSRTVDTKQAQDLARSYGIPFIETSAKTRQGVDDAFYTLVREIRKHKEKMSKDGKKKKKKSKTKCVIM
row,SMILES,IC50
1,CC[C@H](C)[C@@H]1NC(=O)[C@H](CC(C)C)N(C)C(=O)C[C@@H](C)N(C)C(=O)[C@H](CC2CCCC2)N(C)C(=O)C2(CCCC2)NC(=O)[C@@H]2CCCN2C(=O)[C@H](CCc2ccc(C(F)(F)F)c(Cl)c2)NC(=O)CN(C)C(=O)[C@H](CC2CCCCC2)N(C)C(=O)CN(C)C(=O)CN(C)C1=O [Compound 991] (cyclo([Ac5c][NMeAla(cPent)][NMedβ3hAla][NMeL]I[Sar][Sar][NMeCha][Sar][hPhe(3-Cl-4-CF3)]P)),76 nM
2,CC[C@H](C)[C@@H]1NC(=O)[C@H](CC(C)C)N(C)C(=O)C[C@@H](COCCC(C)C)NC(=O)[C@H](C(C)C)N(C)C(=O)C2(CCCC2)NC(=O)[C@@H]2CCCN2C(=O)[C@H](CCc2ccc(C(F)(F)F)c(Cl)c2)NC(=O)CN(C)C(=O)[C@H](CC2CCCCC2)N(C)C(=O)CN(C)C(=O)CN(C)C1=O [Compound 992] (cyclo([Ac5c][NMeV][X79][NMeL]I[Sar][Sar][NMeCha][Sar][hPhe(3-Cl-4-CF3)]P)),180 nM
3,CC[C@H](C)[C@@H]1NC(=O)[C@H](CC(C)C)N(C)C(=O)C[C@@H](C(=O)N(C)C)N(C)C(=O)[C@H](C2CCCC2)N(C)C(=O)[C@H](C)NC(=O)[C@H](C)N(C)C(=O)[C@H](CCc2ccc(C(F)(F)F)c(Cl)c2)NC(=O)CN(C)C(=O)[C@H](CC2CCCCC2)N(C)C(=O)[C@@H]2CCN2C(=O)[C@H](C)N(C)C1=O [Compound 993] ([NMeL]I[NMeA][Aze][NMeCha][Sar][hPhe(3-Cl-4-CF3)][NMeA]A[NMeGly(cPent)][NMeD]-NMe2; lactam N-11),16 nM
4,CC[C@H](C)[C@@H]1NC(=O)[C@H](C)N(C)C(=O)C[C@@H](C)NC(=O)[C@H](C(C)C)N(C)C(=O)[C@H](Cc2ccccc2)N(C)C(=O)[C@H](CC(C)C)N(C)C(=O)[C@H](CCc2ccc(C(F)(F)F)c(Cl)c2)NC(=O)CN(C)C(=O)[C@H](Cc2ccc(Cl)cc2)N(C)C(=O)[C@@H]2CCN2C(=O)CN(C)C1=O [Compound 994] (cyclo([Aze][NMePhe(4-Cl)][Sar][hPhe(3-Cl-4-CF3)][NMeL][NMeF][NMeV][d(β3hA)][NMeA]I[Sar])),11 nM
5,CC[C@H](C)[C@@H]1NC(=O)[C@H](CC(C)C)N(C)C(=O)C[C@@H](C(=O)N2CCCCC2)N(C)C(=O)[C@H](C(C)C)N(C)C(=O)C2(CCCC2)NC(=O)[C@@H]2CCCN2C(=O)[C@H](CCc2ccc(C(F)(F)F)c(Cl)c2)NC(=O)CN(C)C(=O)[C@H](CC2CCCCC2)N(C)C(=O)[C@@H]2CCN2C(=O)[C@H](COCC(=O)NC(C)(C)C)N(C)C1=O [Compound 998] ([NMeL]I[NMeS](CH2CONHtBu)[Aze][NMeCha][Sar][hPhe(3-Cl-4-CF3)]P[Ac5c][NMeV][NMeD]-Piperidide; lactam N-11),17 nM
6,"CC[C@H](C)[C@@H]1NC(=O)[C@H](CC(C)C)N(C)C(=O)C[C@@H](C)N(C)C(=O)[C@H]([C@@H](C)CC)N(C)C(=O)C2(CCCC2)NC(=O)[C@@H]2CC(F)(F)CN2C(=O)[C@H](CCc2ccc(C(F)(F)F)c(Cl)c2)NC(=O)CN(C)C(=O)[C@H](Cc2ccc(C(F)(F)F)cc2)N(C)C(=O)CN(C)C(=O)CN(C)C1=O [Compound 1003] (cyclo([Ac5c][NMeI][NMedβ3hAla][NMeL]I[Sar][Sar][NMePhe(4-CF3)][Sar][hPhe(3-Cl-4-CF3)][Pro(4,4-F2)]))",8.4 nM
7,CC[C@H](C)[C@@H]1NC(=O)CCNC(=O)[C@H](Cc2ccccc2)N(C)C(=O)[C@H](C2CCCCC2)N(C)C(=O)C2(CCCC2)NC(=O)[C@@H]2CCCN2C(=O)[C@H](CCc2ccc(C(F)(F)F)c(Cl)c2)NC(=O)CN(C)C(=O)[C@H](CC2CCCCC2)N(C)C(=O)CN(C)C(=O)CN(C)C1=O [Compound 1007] (cyclo([Ac5c][NMeChg][NMeF][βAla]I[Sar][Sar][NMeCha][Sar][hPhe(3-Cl-4-CF3)]P)),13 nM
8,CC[C@H](C)[C@@H]1NC(=O)[C@H](CC(C)C)N(C)C(=O)C[C@@H](C(=O)N(C)C)N(C)C(=O)[C@H](C2CCCC2)N(C)C(=O)C2(CCCC2)NC(=O)[C@H](Cc2ccccc2Cl)N(C)C(=O)[C@H](CCc2ccc(C(F)(F)F)c(Cl)c2)NC(=O)CN(C)C(=O)[C@H](CC2CCCCC2)N(C)C(=O)[C@@H]2CCN2C(=O)[C@H](C)N(C)C1=O [Compound 1009] ([NMeL]I[NMeA][Aze][NMeCha][Sar][hPhe(3-Cl-4-CF3)][NMePhe(2-Cl)][Ac5c][NMeGly(cPent)][NMeD]-NMe2; lactam N-11),43 nM
9,CC[C@H](C)[C@@H]1NC(=O)[C@H](CC(C)C)N(C)C(=O)C[C@@H](C)NC(=O)[C@H](CC(C)C)N(C)C(=O)C(C)(C)NC(=O)[C@@H]2CCCN2C(=O)[C@H](CCc2ccc(C(F)(F)F)cc2)NC(=O)CN(C)C(=O)[C@H](Cc2ccc(Cl)cc2)N(C)C(=O)CN(C)C(=O)CN(C)C1=O [Compound 1013] (cyclo([Aib][NMeL][d(β3hA)][NMeL]I[Sar][Sar][NMePhe(4-Cl)][Sar][hPhe(4-CF3)]P)),31 nM
